{
  "source": "patent US20230157952A1",
  "about": "“METHOD FOR IMPROVING THE STABILITY OF A PHARMACEUTICAL COMPOSITION COMPRISING A HIGH PENETRATION DRUG, AND THE PHARMACEUTICAL COMPOSITION OBTAINED THEREFROM” (Techfields Inc., priority 2020, published 2023)",
  "key": {"[1]": {"assay": "Effect of solvent on the stability of the solution (purity at various pH values and temperature)", "assay_type": "physicochemical"}, "[2]": {"assay": "Effect of concentration on the stability of the solution (purity over time)", "settings": "at 5° C. in 15% ethanol"}, "[3]": {"assay": "Stability of the pure HPDs (dry solid) at 25° C./RH 60%", "assay_type": "physicochemical", "settings": "pure HPD, 25° C./RH 60%, 24 month"}},
  "data": [
    {"smiles": "CCN(CC)CCOC(=O)c1ccccc1OC(C)=O.Cl", "note": "[2-(diethylamino)ethyl acetylsalicylate•HCl]", "values": [
      {"measurement": "Stability of the solution at a temperature higher than 40° C. and a pH lower than 3 or greater than 6", "setting": "[1]; 7% solution in water", "value": "not stable"},
      {"measurement": "Effect of the solvent on the stability of the solution", "setting": "[1]; 7% solution, 15% ethanol", "value": "did not affect the stability"},
      {"measurement": "Effect of the solvent on the stability of the solution", "setting": "[1]; 7% solution, 25% ethanol", "value": "did not affect the stability"},
      {"measurement": "Effect of the solvent on the stability of the solution", "setting": "[1]; 7% solution, 50% ethanol", "value": "did not affect the stability"},
      {"measurement": "Effect of the amount of ethanol on the stability of the solution", "setting": "[1]; 7% solution, tables 51-54 (water, 15%, 25%, 50% ethanol)", "value": "did not affect the stability"},
      {"measurement": "Purity at day 0", "setting": "[2]; 0.01 wt %", "value": 99.1, "unit": "%"},
      {"measurement": "Purity at day 3", "setting": "[2]; 0.01 wt %", "value": 93.1, "unit": "%"},
      {"measurement": "Purity at day 7", "setting": "[2]; 0.01 wt %", "value": 88.2, "unit": "%"},
      {"measurement": "Purity at day 14", "setting": "[2]; 0.01 wt %", "value": 81.4, "unit": "%"},
      {"measurement": "Purity at day 21", "setting": "[2]; 0.01 wt %", "value": 74.9, "unit": "%"},
      {"measurement": "Purity at day 28", "setting": "[2]; 0.01 wt %", "value": 68.3, "unit": "%"},
      {"measurement": "Purity at day 60", "setting": "[2]; 0.01 wt %", "value": 47.1, "unit": "%"},
      {"measurement": "Purity at day 90", "setting": "[2]; 0.01 wt %", "value": 30.1, "unit": "%"},
      {"measurement": "Purity at day 0", "setting": "[2]; 0.1 wt %", "value": 99.2, "unit": "%"},
      {"measurement": "Purity at day 3", "setting": "[2]; 0.1 wt %", "value": 95.8, "unit": "%"},
      {"measurement": "Purity at day 7", "setting": "[2]; 0.1 wt %", "value": 93.1, "unit": "%"},
      {"measurement": "Purity at day 14", "setting": "[2]; 0.1 wt %", "value": 89.5, "unit": "%"},
      {"measurement": "Purity at day 21", "setting": "[2]; 0.1 wt %", "value": 86.6, "unit": "%"},
      {"measurement": "Purity at day 28", "setting": "[2]; 0.1 wt %", "value": 83.7, "unit": "%"},
      {"measurement": "Purity at day 60", "setting": "[2]; 0.1 wt %", "value": 71.8, "unit": "%"},
      {"measurement": "Purity at day 90", "setting": "[2]; 0.1 wt %", "value": 59.9, "unit": "%"},
      {"measurement": "Purity at day 0", "setting": "[2]; 1 wt %", "value": 99.3, "unit": "%"},
      {"measurement": "Purity at day 3", "setting": "[2]; 1 wt %", "value": 97.6, "unit": "%"},
      {"measurement": "Purity at day 7", "setting": "[2]; 1 wt %", "value": 96.9, "unit": "%"},
      {"measurement": "Purity at day 14", "setting": "[2]; 1 wt %", "value": 95.2, "unit": "%"},
      {"measurement": "Purity at day 21", "setting": "[2]; 1 wt %", "value": 93.7, "unit": "%"},
      {"measurement": "Purity at day 28", "setting": "[2]; 1 wt %", "value": 91.5, "unit": "%"},
      {"measurement": "Purity at day 60", "setting": "[2]; 1 wt %", "value": 82.7, "unit": "%"},
      {"measurement": "Purity at day 90", "setting": "[2]; 1 wt %", "value": 74.1, "unit": "%"},
      {"measurement": "Purity at day 0", "setting": "[2]; 3 wt %", "value": 99.5, "unit": "%"},
      {"measurement": "Purity at day 14", "setting": "[2]; 3 wt %", "value": 96.4, "unit": "%"},
      {"measurement": "Purity at day 21", "setting": "[2]; 3 wt %", "value": 94.5, "unit": "%"},
      {"measurement": "Purity at day 28", "setting": "[2]; 3 wt %", "value": 92.7, "unit": "%"},
      {"measurement": "Purity at day 60", "setting": "[2]; 3 wt %", "value": 86.1, "unit": "%"},
      {"measurement": "Purity at day 90", "setting": "[2]; 3 wt %", "value": 80.2, "unit": "%"},
      {"measurement": "Purity at day 0", "setting": "[2]; 5 wt %", "value": 99.5, "unit": "%"},
      {"measurement": "Purity at day 3", "setting": "[2]; 5 wt %", "value": 99.3, "unit": "%"},
      {"measurement": "Purity at day 7", "setting": "[2]; 5 wt %", "value": 99.1, "unit": "%"},
      {"measurement": "Purity at day 60", "setting": "[2]; 5 wt %", "value": 96.7, "unit": "%"},
      {"measurement": "Purity at day 90", "setting": "[2]; 5 wt %", "value": 96.1, "unit": "%"},
      {"measurement": "Purity at day 0", "setting": "[2]; 7 wt %", "value": 99.6, "unit": "%"},
      {"measurement": "Purity at day 3", "setting": "[2]; 7 wt %", "value": 99.4, "unit": "%"},
      {"measurement": "Purity at day 7", "setting": "[2]; 7 wt %", "value": 99.3, "unit": "%"},
      {"measurement": "Purity at day 14", "setting": "[2]; 7 wt %", "value": 99.1, "unit": "%"},
      {"measurement": "Purity at day 90", "setting": "[2]; 7 wt %", "value": 97.2, "unit": "%"},
      {"measurement": "Purity at day 0", "setting": "[2]; 8 wt %", "value": 99.7, "unit": "%"},
      {"measurement": "Purity at day 3", "setting": "[2]; 8 wt %", "value": 99.5, "unit": "%"},
      {"measurement": "Purity at day 7", "setting": "[2]; 8 wt %", "value": 99.3, "unit": "%"},
      {"measurement": "Purity at day 14", "setting": "[2]; 8 wt %", "value": 99.3, "unit": "%"},
      {"measurement": "Purity at day 90", "setting": "[2]; 8 wt %", "value": 97.4, "unit": "%"},
      {"measurement": "Purity at day 0", "setting": "[2]; 10 wt %", "value": 99.6, "unit": "%"},
      {"measurement": "Purity at day 3", "setting": "[2]; 10 wt %", "value": 99.7, "unit": "%"},
      {"measurement": "Purity at day 7", "setting": "[2]; 10 wt %", "value": 99.4, "unit": "%"},
      {"measurement": "Purity at day 14", "setting": "[2]; 10 wt %", "value": 99.1, "unit": "%"},
      {"measurement": "Purity at day 90", "setting": "[2]; 10 wt %", "value": 97.2, "unit": "%"},
      {"measurement": "Purity at day 0", "setting": "[2]; 15 wt %", "value": 99.5, "unit": "%"},
      {"measurement": "Purity at day 3", "setting": "[2]; 15 wt %", "value": 99.5, "unit": "%"},
      {"measurement": "Purity at day 7", "setting": "[2]; 15 wt %", "value": 99.3, "unit": "%"},
      {"measurement": "Purity at day 14", "setting": "[2]; 15 wt %", "value": 99.2, "unit": "%"},
      {"measurement": "Purity at day 90", "setting": "[2]; 15 wt %", "value": 97.3, "unit": "%"},
      {"measurement": "Purity at day 0", "setting": "[2]; 20 wt %", "value": 99.5, "unit": "%"},
      {"measurement": "Purity at day 3", "setting": "[2]; 20 wt %", "value": 99.6, "unit": "%"},
      {"measurement": "Purity at day 7", "setting": "[2]; 20 wt %", "value": 99.3, "unit": "%"},
      {"measurement": "Purity at day 14", "setting": "[2]; 20 wt %", "value": 99.2, "unit": "%"},
      {"measurement": "Purity at day 90", "setting": "[2]; 20 wt %", "value": 97.3, "unit": "%"},
      {"measurement": "Purity at day 0", "setting": "[2]; 30 wt %", "value": 99.5, "unit": "%"},
      {"measurement": "Purity at day 3", "setting": "[2]; 30 wt %", "value": 99.5, "unit": "%"},
      {"measurement": "Purity at day 7", "setting": "[2]; 30 wt %", "value": 99.4, "unit": "%"},
      {"measurement": "Purity at day 14", "setting": "[2]; 30 wt %", "value": 99.4, "unit": "%"},
      {"measurement": "Purity at day 90", "setting": "[2]; 30 wt %", "value": 97.4, "unit": "%"},
      {"measurement": "Purity at day 0", "setting": "[2]; 50 wt %", "value": 99.7, "unit": "%"},
      {"measurement": "Purity at day 3", "setting": "[2]; 50 wt %", "value": 99.6, "unit": "%"},
      {"measurement": "Purity at day 7", "setting": "[2]; 50 wt %", "value": 99.5, "unit": "%"},
      {"measurement": "Purity at day 14", "setting": "[2]; 50 wt %", "value": 99.3, "unit": "%"},
      {"measurement": "Purity at day 21", "setting": "[2]; 50 wt %", "value": 99.2, "unit": "%"},
      {"measurement": "Purity at day 90", "setting": "[2]; 50 wt %", "value": 97.4, "unit": "%"},
      {"measurement": "Stability when the concentration is 0.1% or lower", "setting": "[2]", "value": "not stable"}
    ]},
    {"smiles": "CCN(CC)CCOC(=O)[C@@H](C)c1ccc(CC(C)C)cc1.Cl", "note": "[C-1-2, 2-(diethylamino)ethyl (S)-2-(p-isobutylphenyl)propionate•HCl salt]", "values": [
      {"measurement": "Purity", "setting": "[3]", "value": "98.0 ± 0.5"}
    ]}
  ]
}
